# Experimental data from patent US10196386B2, “Compounds having muscarinic receptor antagonist and beta2 adrenergic receptor agonist activity” (priority 2016, dated 2019).
# What was measured:
# [1] = molecular target: T1, Human M3 receptor (Homo sapiens, UniProt P20309); test: biochemical; format: binding; details: read-out: M3 Range
# T1 construct: purchased Perkin Elmer
# [2] = molecular target: T2, Human β2 adrenoceptor (Homo sapiens, UniProt P07550); test: β2 adrenoceptor radioligand binding assay
# T2 construct: purchased Perkin Elmer
# Protocol: β2 Adrenoceptor Radioligand Binding Assay
# Human β2 adrenoceptor membranes (7.5 ug/well) from Perkin Elmer were incubated with 0.3 nM 125-I Cyanopindolol with or without test compounds, or a saturating concentration of s-propranolol (2 μM) for the determination of non-specific binding. The assay was carried out in 96-well polypropylene plates in a volume of 200 ul. The assay buffer used was 25 mM HEPES, 0.5% BSA (w/v), 1 mM EDTA, 0.02% ascorbic acid (v/v), (pH 7.4). The final assay concentration of DMSO was 0.5% (v/v). The plates were sealed and incubated for 1 h at room temperature on an orbital shaker (slow speed). Membranes were harvested onto 96-well unifilter GF/C filter plates pre-treated with 0.5% polyethyleneimine (v/v), using a filter manifold, washed six times with 200 ul of wash buffer containing 10 mM HEPES and 500 mM NaCl. The plates were dried before addition of 50 μl of microscint-0, sealed then read in a Trilux Microbeta scintillation counter. IC50 values are determined from competition curves using a non-linear curve fitting program. Ki values were calculated from IC50 values by the Cheng and Prusoff equation.
# T1 sequence (P20309 whole entry): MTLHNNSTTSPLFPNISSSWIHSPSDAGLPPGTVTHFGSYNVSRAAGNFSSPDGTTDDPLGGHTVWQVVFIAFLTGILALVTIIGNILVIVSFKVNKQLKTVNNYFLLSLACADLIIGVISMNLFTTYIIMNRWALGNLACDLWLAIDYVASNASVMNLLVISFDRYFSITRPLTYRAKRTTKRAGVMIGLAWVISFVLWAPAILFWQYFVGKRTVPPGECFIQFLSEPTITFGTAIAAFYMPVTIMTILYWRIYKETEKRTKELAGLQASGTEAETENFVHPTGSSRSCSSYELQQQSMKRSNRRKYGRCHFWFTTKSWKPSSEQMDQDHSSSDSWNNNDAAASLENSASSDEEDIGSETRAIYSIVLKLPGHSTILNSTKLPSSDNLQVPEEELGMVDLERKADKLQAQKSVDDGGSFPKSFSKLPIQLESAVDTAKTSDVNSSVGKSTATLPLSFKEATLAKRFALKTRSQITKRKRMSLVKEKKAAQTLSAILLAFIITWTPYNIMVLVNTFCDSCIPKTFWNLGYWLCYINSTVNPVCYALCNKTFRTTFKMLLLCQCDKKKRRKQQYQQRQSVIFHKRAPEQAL
# T2 sequence (P07550 whole entry): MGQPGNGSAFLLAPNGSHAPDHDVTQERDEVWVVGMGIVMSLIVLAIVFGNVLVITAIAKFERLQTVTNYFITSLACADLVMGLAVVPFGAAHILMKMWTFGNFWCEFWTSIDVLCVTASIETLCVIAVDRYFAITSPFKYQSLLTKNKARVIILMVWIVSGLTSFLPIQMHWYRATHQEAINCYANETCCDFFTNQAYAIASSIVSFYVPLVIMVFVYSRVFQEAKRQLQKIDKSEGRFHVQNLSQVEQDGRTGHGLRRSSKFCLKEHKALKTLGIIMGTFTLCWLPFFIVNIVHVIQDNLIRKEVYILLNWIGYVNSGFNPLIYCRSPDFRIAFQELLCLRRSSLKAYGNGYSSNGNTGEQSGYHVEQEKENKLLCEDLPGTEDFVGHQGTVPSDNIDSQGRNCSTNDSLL
Structure (SMILES),IC50 [1] [pM],IC50 [2] [pM]
"COc1cc(C(=O)N2CC=C(c3cccc([C@](O)(C(=O)OCC4CCN(Cc5ccccc5)CC4)c4ccccc4)c3)CC2)ccc1CNC[C@H](O)c1ccc(O)c2[nH]c(=O)ccc12 [Compound 3C, (1-Benzylpiperidin-4-yl)methyl (S)-2-hydroxy-2-(3-(1-(4-((((R)-2-hydroxy-2-(8-hydroxy-2-oxo-1,2-dihydroquinolin-5-yl)ethyl)amino)methyl)-3-methoxybenzoyl)-1,2,3,6-tetrahydropyridin-4-yl)phenyl)-2-phenylacetate]",< 300,< 300
"O=C(c1cncc(-c2cccc([C@](O)(C(=O)OCC3CCN(Cc4ccccc4)CC3)c3ccccc3)c2)c1)N1CCC(CNC[C@H](O)c2ccc(O)c3[nH]c(=O)ccc23)CC1 [Compound 6E, (1-Benzylpiperidin-4-yl)methyl (S)-2-hydroxy-2-(3-(5-(4-((((R)-2-hydroxy-2-(8-hydroxy-2-oxo-1,2-dihydroquinolin-5-yl)ethyl)amino)methyl)piperidine-1-carbonyl)pyridin-3-yl)phenyl)-2-phenylacetate]",300 to 3000,< 300
"COc1cc(CNC[C@H](O)c2ccc(O)c3[nH]c(=O)ccc23)ccc1C(=O)N1CCC(c2cccc([C@](O)(C(=O)OCC3CCN(Cc4ccccc4)CC3)c3ccccc3)c2)CC1 [Compound 7B, (1-Benzylpiperidin-4-yl)methyl (S)-2-hydroxy-2-(3-(1-(4-((((R)-2-hydroxy-2-(8-hydroxy-2-oxo-1,2-dihydroquinolin-5-yl)ethyl)amino)methyl)-2-methoxybenzoyl)piperidin-4-yl)phenyl)-2-phenylacetate]",300 to 3000,> 3000
"O=C(c1ccc(CCNC[C@H](O)c2ccc(O)c3[nH]c(=O)ccc23)cc1)N1CC=C(c2cccc([C@](O)(C(=O)OCC3CCN(Cc4ccccc4)CC3)c3ccccc3)c2)C1 [Compound 3F, (1-Benzylpiperidin-4-yl)methyl (S)-2-hydroxy-2-(3-(1-(4-(2-(((R)-2-hydroxy-2-(8-hydroxy-2-oxo-1,2-dihydroquinolin-5-yl)ethyl)amino)ethyl)benzoyl)-2,5-dihydro-1H-pyrrol-3-yl)phenyl)-2-phenylacetate]",300 to 3000,< 300
"COc1cc(CNC[C@H](O)c2ccc(O)c3[nH]c(=O)ccc23)ccc1C(=O)N1CC=C(c2cccc([C@](O)(C(=O)OCC3CCN(Cc4ccccc4)CC3)c3ccccc3)c2)CC1 [Compound 3E, (1-Benzylpiperidin-4-yl)methyl (S)-2-hydroxy-2-(3-(1-(4-((((R)-2-hydroxy-2-(8-hydroxy-2-oxo-1,2-dihydroquinolin-5-yl)ethyl)amino)methyl)-2-methoxybenzoyl)-1,2,3,6-tetrahydropyridin-4-yl)phenyl)-2-phenylacetate]",< 300,< 300
"O=C(NCc1ccc(-c2ccc([C@](O)(C(=O)OCC3CCN(Cc4ccccc4)CC3)c3ccccc3)cc2)s1)c1ccc(CNC[C@H](O)c2ccc(O)c3[nH]c(=O)ccc23)cc1 [Compound 15, (1-benzylpiperidin-4-yl)methyl (S)-2-hydroxy-2-(4-(5-((4-((((R)-2-hydroxy-2-(8-hydroxy-2-oxo-1,2-dihydroquinolin-5-yl)ethyl)amino)methyl)benzamido)methyl)-thiophen-2-yl)phenyl)-2-phenylacetate×2 HCOOH]",300 to 3000,< 300
"O=C(NCc1cnc(-c2ccc([C@](O)(C(=O)OCC3CCN(Cc4ccccc4)CC3)c3ccccc3)cc2)s1)c1ccc(CNC[C@H](O)c2ccc(O)c3[nH]c(=O)ccc23)cc1 [Compound 15C, (1-benzylpiperidin-4-yl)methyl (S)-2-hydroxy-2-(4-(5-((4-((((R)-2-hydroxy-2-(8-hydroxy-2-oxo-1,2-dihydroquinolin-5-yl)ethyl)amino)methyl)-benzamido)methyl)thiazol-2-yl)phenyl)-2-phenylacetate]",300 to 3000,< 300
"CN1CCC(OC(=O)[C@](O)(c2ccccc2)c2cccc(-c3ccc(CNC(=O)c4ccc(CNC[C@H](O)c5ccc(O)c6[nH]c(=O)ccc56)cc4)s3)c2)CC1 [Compound 2, 1-Methylpiperidin-4-yl (S)-2-hydroxy-2-(3-(5-((4-((((R)-2-hydroxy-2-(8-hydroxy-2-oxo-1,2-dihydroquinolin-5-yl)ethyl)amino)methyl)benzamido)-methyl)thiophen-2-yl)phenyl)-2-phenylacetate]",–,< 300
"COc1cc(C(=O)NCc2nn(C)cc2-c2cccc([C@](O)(C(=O)OCC3CCN(Cc4ccccc4)CC3)c3ccccc3)c2)ccc1CNC[C@H](O)c1ccc(O)c2[nH]c(=O)ccc12 [Compound 4F, (1-Benzylpiperidin-4-yl)methyl (S)-2-hydroxy-2-(3-(3-((4-((((R)-2-hydroxy-2-(8-hydroxy-2-oxo-1,2-dihydroquinolin-5-yl)ethyl)amino)methyl)-3-methoxybenzamido)methyl)-1-methyl-1H-pyrazol-4-yl)phenyl)-2-phenylacetate]",300 to 3000,300 to 3000
"O=C(c1ccc(CCNC[C@H](O)c2ccc(O)c3[nH]c(=O)ccc23)cc1)N1CCC(c2cccc([C@](O)(C(=O)OCC3CCN(Cc4ccccc4)CC3)c3ccccc3)c2)CC1 [Compound 7C, (1-Benzylpiperidin-4-yl)methyl (S)-2-hydroxy-2-(3-(1-(4-(2-(((R)-2-hydroxy-2-(8-hydroxy-2-oxo-1,2-dihydroquinolin-5-yl)ethyl)amino)ethyl)benzoyl)piperidin-4-yl)phenyl)-2-phenylacetate]",300 to 3000,< 300
"COc1cc(CNC[C@H](O)c2ccc(O)c3[nH]c(=O)ccc23)ccc1C(=O)NCC(=O)N1CC=C(c2cccc([C@](O)(C(=O)OCC3CCN(Cc4ccccc4)CC3)c3ccccc3)c2)CC1 [Compound 8A, (1-Benzylpiperidin-4-yl)methyl (S)-2-hydroxy-2-(3-(1-((4-((((R)-2-hydroxy-2-(8-hydroxy-2-oxo-1,2-dihydroquinolin-5-yl)ethyl)amino)methyl)-2-methoxybenzoyl)glycyl)-1,2,3,6-tetrahydropyridin-4-yl)phenyl)-2-phenylacetate]",300 to 3000,< 300
"O=C(NCc1ccnc(-c2cccc([C@](O)(C(=O)OCC3CCN(Cc4ccccc4)CC3)c3ccccc3)c2)n1)c1ccc(CNC[C@H](O)c2ccc(O)c3[nH]c(=O)ccc23)cc1 [Compound 4D, (1-Benzylpiperidin-4-yl)methyl (S)-2-hydroxy-2-(3-(4-((4-((((R)-2-hydroxy-2-(8-hydroxy-2-oxo-1,2-dihydroquinolin-5-yl)ethyl)amino)methyl)-benzamido)methyl)pyrimidin-2-yl)phenyl)-2-phenylacetate]",300 to 3000,300 to 3000
"O=C(NCc1cnc(-c2cccc([C@](O)(C(=O)OCC3CCN(Cc4ccccc4)CC3)c3ccccc3)c2)cn1)c1ccc(CNC[C@H](O)c2ccc(O)c3[nH]c(=O)ccc23)cc1 [Compound 4B, (1-Benzylpiperidin-4-yl)methyl (S)-2-hydroxy-2-(3-(5-((4-((((R)-2-hydroxy-2-(8-hydroxy-2-oxo-1,2-dihydroquinolin-5-yl)ethyl)amino)methyl)-benzamido)methyl)pyrazin-2-yl)phenyl)-2-phenylacetate]",< 300,300 to 3000
"O=C(NCc1ncc(-c2cccc([C@](O)(C(=O)OCC3CCN(Cc4ccccc4)CC3)c3ccccc3)c2)cn1)c1ccc(CNC[C@H](O)c2ccc(O)c3[nH]c(=O)ccc23)cc1 [Compound 4, (1-Benzylpiperidin-4-yl)methyl (S)-2-hydroxy-2-(3-(2-((4-((((R)-2-hydroxy-2-(8-hydroxy-2-oxo-1,2-dihydroquinolin-5-yl)ethyl)amino)methyl)benzamido)-methyl)pyrimidin-5-yl)phenyl)-2-phenylacetate]",300 to 3000,300 to 3000
"CN1CCC(COC(=O)[C@](O)(c2ccccc2)c2cccc(-c3ccc(CNC(=O)c4ccc(CNC[C@H](O)c5ccc(O)c6[nH]c(=O)ccc56)cc4)s3)c2)CC1 [Compound 2B, (1-Methylpiperidin-4-yl)methyl (S)-2-hydroxy-2-(3-(5-((4-((((R)-2-hydroxy-2-(8-hydroxy-2-oxo-1,2-dihydroquinolin-5-yl)ethyl)amino)methyl)-benzamido)methyl)thiophen-2-yl)phenyl)-2-phenylacetate]",300 to 3000,< 300
"O=C(NCc1ccc(-c2cccc([C@](O)(C(=O)OC3CCN(Cc4ccccc4)CC3)c3ccccc3)c2)s1)c1ccc(CNC[C@H](O)c2ccc(O)c3[nH]c(=O)ccc23)cc1 [Compound 2F, 1-Benzylpiperidin-4-yl (S)-2-hydroxy-2-(3-(5-((4-((((R)-2-hydroxy-2-(8-hydroxy-2-oxo-1,2-dihydroquinolin-5-yl)ethyl)amino)methyl)-benzamido)methyl)thiophen-2-yl)phenyl)-2-phenylacetate]",–,< 300
"O=C(NCc1ccc(-c2cccc([C@](O)(C(=O)OC[C@H]3CCCN(Cc4ccccc4)C3)c3ccccc3)c2)s1)c1ccc(CNC[C@H](O)c2ccc(O)c3[nH]c(=O)ccc23)cc1 [Compound 2C, ((S)-1-Benzylpiperidin-3-yl)methyl (S)-2-hydroxy-2-(3-(5-((4-((((R)-2-hydroxy-2-(8-hydroxy-2-oxo-1,2-dihydroquinolin-5-yl)ethyl)amino)-methyl)benzamido)methyl)thiophen-2-yl)phenyl)-2-phenylacetate]",–,300 to 3000
